Laboratory results published in ChEMBL document CHEMBL4673197, “Microwave-assisted green synthesis of bile acid derivatives and evaluation of glucocorticoid receptor binding” (RSC Med Chem, 2021).
Calls of active or inactive are those of the source. The calls are words filed in the database; no cut-off is given here.

How the values were obtained:
Assay type in all cases: cell-based
[1] = target: T1, Glucocorticoid receptor (Rattus norvegicus) (UniProt P06536); assay: Binding affinity to enhanced YFP tagged rat glucocorticoid receptor (497-795)-LBD expressed in Saccharomyces cerevisiae FY250 cells by measuring increase in fluorescence intensity incubated at 100 uM for 15 hrs by fluorescence microscopy
T1 sequence (whole entry): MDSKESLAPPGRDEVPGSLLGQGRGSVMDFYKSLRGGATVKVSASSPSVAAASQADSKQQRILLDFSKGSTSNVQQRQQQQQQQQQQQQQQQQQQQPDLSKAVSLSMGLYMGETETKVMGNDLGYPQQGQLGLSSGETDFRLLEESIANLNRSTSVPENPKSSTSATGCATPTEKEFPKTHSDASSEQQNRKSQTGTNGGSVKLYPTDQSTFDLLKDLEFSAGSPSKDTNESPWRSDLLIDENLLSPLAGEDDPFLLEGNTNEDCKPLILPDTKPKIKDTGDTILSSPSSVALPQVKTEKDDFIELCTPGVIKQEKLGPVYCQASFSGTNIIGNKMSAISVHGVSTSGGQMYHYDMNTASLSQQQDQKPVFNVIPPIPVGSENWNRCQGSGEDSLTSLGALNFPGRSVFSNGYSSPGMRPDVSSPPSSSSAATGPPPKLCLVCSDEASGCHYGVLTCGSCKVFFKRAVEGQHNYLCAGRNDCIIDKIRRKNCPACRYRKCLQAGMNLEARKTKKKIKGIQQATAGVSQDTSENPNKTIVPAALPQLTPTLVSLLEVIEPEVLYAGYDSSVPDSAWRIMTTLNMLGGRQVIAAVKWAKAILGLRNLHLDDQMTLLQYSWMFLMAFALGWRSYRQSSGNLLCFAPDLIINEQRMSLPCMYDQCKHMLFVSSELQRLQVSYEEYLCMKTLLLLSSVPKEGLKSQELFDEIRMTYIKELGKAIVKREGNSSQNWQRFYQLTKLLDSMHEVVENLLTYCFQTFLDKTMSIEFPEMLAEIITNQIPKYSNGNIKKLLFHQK

[2] = target: T1, Glucocorticoid receptor (Rattus norvegicus); assay: Binding affinity to enhanced YFP tagged rat glucocorticoid receptor (497-795)-LBD expressed in Saccharomyces cerevisiae FY250 cells by measuring fluorescence changes incubated for 15 hrs by fluorescence spectroscopy
[3] = target: T1, Glucocorticoid receptor (Rattus norvegicus); assay: Binding affinity to enhanced YFP tagged rat glucocorticoid receptor (497-795)-LBD expressed in Saccharomyces cerevisiae FY250 cells by measuring fluorescence changes incubated at 100 uM for 15 hrs by fluorescence spectroscopy

Question: For `C[C@]12C=CC(=O)C=C1CC[C@@H]1[C@@H]2[C@@H](O)C[C@@]2(C)[C@H]1CC[C@]2(O)C(=O)CO`, which Activity [1] is on record?
Answer: Its Activity is “Active”.

Question: And the Activity [2]?
Answer: The Activity was “Dose-dependent effect”.

Question: Which results are given for `C[C@H](CCC(=O)Nc1ccccc1)[C@H]1CC[C@H]2[C@@H]3CC[C@@H]4C[C@H](O)CC[C@]4(C)[C@H]3C[C@H](O)[C@]12C`?
Answer: Activity [1]: Active; Activity [3]: Active

Question: `C[C@H](CCC(=O)O)[C@H]1CC[C@H]2[C@@H]3CC[C@@H]4CCCC[C@]4(C)[C@H]3CC[C@]12C` was tested. Which Activity [1] did it give?
Answer: Its Activity is “Active”.

Question: What about the Activity [3] of the same molecule?
Answer: The Activity was “Active”.
